# Measured values reported in patent publication US20210198204A1, “PRODRUGS OF KALLIKREIN INHIBITORS” (BioCryst Pharmaceuticals, Inc., priority 2016, published 2021).
# Assay: Plasma pharmacokinetics of the parent compound after a single oral dose of prodrug
# Assay type: in vivo
# Conditions: single oral dose 10 mg/kg, fasted male Sprague Dawley rats; plasma analyzed for the parent compound; study duration 8 h
# Procedure: Plasma pharmacokinetics of compounds was determined using three male Sprague Dawley rats following a single oral dose administration. All animals were placed in a rat metabolic cage, isolated, and fasted approximately 15 hours prior to dosing. Identifying markers were placed on each animal. Each animal was weighed prior to dose administration. Animals were administered orally with a solution formulation of test compound either in water or a combination of water/propylene glycol, at a dose of 10 mg/kg. Gavage needles were attached to syringes and filled with appropriate amount of test article to be dosed. Blood samples (approximately 500 μL) were collected from three rats at pre-dose (time 0), 0.5, 1, 2, 4, 8, 12 and 24 hr, respectively, depending on study duration. Samples were collected into labeled micro centrifuge tubes containing (heparin solution) as an anticoagulant. Plasma was immediately harvested from the blood by centrifugation at 14,000 rpm for 3 min at 4° C., and stored below −70° C. until bioanalysis. Individual plasma samples were analyzed for the parent compound, 3-[2-(4-carbamimidoyl-phenylcarbamoyl)-5-methoxy-4-vinyl-phenyl]-6-(cyclopropylmethyl-carbamoyl)-pyridine-2-carboxylic acid. As shown in Table-1, the test compounds yielded varying degrees of exposure to the parent compound. The test compounds generally provided for improved bioavailability of the parent compound as compared to dosing of the parent compound in aqueous solutions.
row,AUC0-last hour (area under the curve),SMILES
1,"A (A = 0-1,000 ng/mL)","C=Cc1cc(C(=O)Nc2ccc(C(=N)N)cc2)c(-c2ccc(C(=O)NCC3CC3)nc2C(=O)OC[C@H](C)OC(=O)[C@@H](N)C(C)C)cc1OC (single isomer, unassigned) [Compound 18f]"
2,"A (A = 0-1,000 ng/mL)","C=Cc1cc(C(=O)Nc2ccc(C(=N)N)cc2)c(-c2ccc(C(=O)NCC3CC3)nc2C(=O)OC[C@@H](C)OC(=O)[C@@H](N)C(C)C)cc1OC (single isomer, unassigned) [Compound 18g]"
3,"A (A = 0-1,000 ng/mL)","C=Cc1cc(C(=O)Nc2ccc(C(=N)N)cc2)c(-c2ccc(C(=O)NCC3CC3)nc2C(=O)OC)cc1OC.CS(=O)(=O)O [Compound 1o, Methyl 3-[2-(4-carbamimidoylphenylcarbamoyl)-5-methoxy-4-vinylphenyl]-6-(cyclopropylmethylcarbamoyl)pyridine-2-carboxylate methanesulfonate]"
4,"A (A = 0-1,000 ng/mL)","C=Cc1cc(C(=O)Nc2ccc(C(=N)NC(=O)OCCCCCC)cc2)c(-c2ccc(C(=O)NCC3CC3)nc2C(=O)OCCN2CCOCC2)cc1OC.Cl [Compound 6a, 2-morpholinoethyl 6-((cyclopropylmethyl)carbamoyl)-3-(2-((4-(N-((hexyloxy)carbonyl)carbamimidoyl)phenyl)carbamoyl)-5-methoxy-4-vinylphenyl)picolinate hydrochloride]"
5,"A (A = 0-1,000 ng/mL)","C=Cc1cc(C(=O)Nc2ccc(C(N)=NO)cc2)c(-c2ccc(C(=O)NCC3CC3)nc2C(=O)O)cc1OC [Compound 9c, 6-((cyclopropylmethyl)carbamoyl)-3-(2-((4-(N′-hydroxycarbamimidoyl)phenyl)carbamoyl)-5-methoxy-4-vinylphenyl)picolinic acid]"
6,"A (A = 0-1,000 ng/mL)","C=Cc1cc(C(=O)Nc2ccc(C(=N)N)cc2)c(-c2ccc(C(=O)NCC3CC3)nc2C(=O)OCC(C)OC(=O)[C@@H](N)C(C)C)cc1OC (stereo partly drawn) [Compound 18e, 2-(((S)-2-amino-3-methylbutanoyl)oxy)propyl 3-(2-((4-carbamimidoylphenyl)carbamoyl)-5-methoxy-4-vinylphenyl)-6-((cyclopropylmethyl)carbamoyl)picolinate]"
7,"A (A = 0-1,000 ng/mL)","C=Cc1cc(C(=O)Nc2ccc(C(=N)NC(=O)OC(C)C)cc2)c(-c2ccc(C(=O)NCC3CC3)nc2C(=O)OC)cc1OC [Compound 20b, methyl 6-((cyclopropylmethyl)carbamoyl)-3-(2-((4-(N-(isopropoxycarbonyl)carbamimidoyl)phenyl)carbamoyl)-5-methoxy-4-vinylphenyl)picolinate]"
8,"A (A = 0-1,000 ng/mL)","C=Cc1cc(C(=O)Nc2ccc(C(=N)N)cc2)c(-c2ccc(C(=O)NCC3CC3)nc2C(=O)OC(C)OC(=O)C(C)(C)C)cc1OC (stereo not drawn) [Compound 22d, 1-(pivaloyloxy)ethyl 3-(2-((4-carbamimidoylphenyl)carbamoyl)-5-methoxy-4-vinylphenyl)-6-((cyclopropylmethyl)carbamoyl)picolinate]"
9,"A (A = 0-1,000 ng/mL)","C=Cc1cc(C(=O)Nc2ccc(C(=N)NC(=O)OCCCCCC)cc2)c(-c2ccc(C(=O)NCC3CC3)nc2C(=O)O)cc1OC [Compound 24c, 6-((cyclopropylmethyl)carbamoyl)-3-(2-((4-(N-((hexyloxy)carbonyl)carbamimidoyl)phenyl)carbamoyl)-5-methoxy-4-vinylphenyl)picolinic acid]"

row,SMILES,AUC0-last hour (area under the curve)
1,"C=Cc1cc(C(=O)Nc2ccc(C(=N)N)cc2)c(-c2ccc(C(=O)NCC3CC3)nc2C(=O)O)cc1OC [Compound 23e, 3-(2-((4-carbamimidoylphenyl)carbamoyl)-5-methoxy-4-vinylphenyl)-6-((cyclopropylmethyl)carbamoyl)picolinic acid]","B (B = 1,001-10,000 ng/mL)"

# Same assay, conditions: single oral dose 10 mg/kg, fasted male Sprague Dawley rats; plasma analyzed for the parent compound; study duration 12 h
row,AUC0-last hour (area under the curve),SMILES
1,"A (A = 0-1,000 ng/mL)","C=Cc1cc(C(=O)Nc2ccc(C(=N)N)cc2)c(-c2ccc(C(=O)NCC3CC3)nc2C(=O)OCCN2CCOCC2)cc1OC.Cl [Compound 2d, 2-morpholinoethyl 3-(2-((4-carbamimidoylphenyl)carbamoyl)-5-methoxy-4-vinylphenyl)-6-((cyclopropylmethyl)carbamoyl)picolinate hydrochloride]"
2,"B (B = 1,001-10,000 ng/mL)","C=Cc1cc(C(=O)Nc2ccc(C(=N)N)cc2)c(-c2ccc(C(=O)NCC3CC3)nc2C(=O)OCOC(=O)[C@@H](N)C(C)C)cc1OC.O=C(O)C(F)(F)F [Compound 10e, (S)-((2-amino-3-methylbutanoyl)oxy)methyl 3-(2-((4-carbamimidoylphenyl)carbamoyl)-5-methoxy-4-vinylphenyl)-6-((cyclopropylmethyl)carbamoyl)picolinate trifluoroacetate]"
3,"A (A = 0-1,000 ng/mL)","C=Cc1cc(C(=O)Nc2ccc(C(=N)N)cc2)c(-c2ccc(C(=O)NCC3CC3)nc2C(=O)OCOC(=O)OC(C)C)cc1OC [Compound 14d, ((isopropoxycarbonyl)oxy)methyl 3-(2-((4-carbamimidoylphenyl)carbamoyl)-5-methoxy-4-vinylphenyl)-6-((cyclopropylmethyl)carbamoyl)picolinate]"
4,"A (A = 0-1,000 ng/mL)","C=Cc1cc(C(=O)Nc2ccc(C(=N)N)cc2)c(-c2ccc(C(=O)NCC3CC3)nc2C(=O)OCOC(=O)C(C)(C)C)cc1OC [Compound 15d, (pivaloyloxy)methyl 3-(2-((4-carbamimidoylphenyl)carbamoyl)-5-methoxy-4-vinylphenyl)-6-((cyclopropylmethyl)carbamoyl)picolinate]"
5,"A (A = 0-1,000 ng/mL)","C=Cc1cc(C(=O)Nc2ccc(C(=N)N)cc2)c(-c2ccc(C(=O)NCC3CC3)nc2C(=O)OCc2oc(=O)oc2C)cc1OC [Compound 19d, (5-methyl-2-oxo-1,3-dioxol-4-yl)methyl 3-(2-((4-carbamimidoylphenyl)carbamoyl)-5-methoxy-4-vinylphenyl)-6-((cyclopropylmethyl)carbamoyl)picolinate]"
6,"B (B = 1,001-10,000 ng/mL)","C=Cc1cc(C(=O)Nc2ccc(C(=N)N)cc2)c(-c2ccc(C(=O)NCC3CC3)nc2C(=O)OC(C)OC(=O)C(C)C)cc1OC (stereo not drawn) [Compound 29d, 1-(isobutyryloxy)ethyl 3-(2-(4-carbamimidoylphenylcarbamoyl)-5-methoxy-4-vinylphenyl)-6-(cyclopropylmethylcarbamoyl)picolinate]"
7,"B (B = 1,001-10,000 ng/mL)","C=Cc1cc(C(=O)Nc2ccc(C(=N)NC(=O)OCCCCCC)cc2)c(-c2ccc(C(=O)NCC3CC3)nc2C(=O)OCOC(=O)[C@@H](N)C(C)C)cc1OC [Compound 31b, (S)-((2-amino-3-methylbutanoyl)oxy)methyl 6-((cyclopropylmethyl)carbamoyl)-3-(2-((4-(N-((hexyloxy)carbonyl)carbamimidoyl)phenyl)carbamoyl)-5-methoxy-4-vinylphenyl)picolinate]"

row,SMILES,AUC0-last hour (area under the curve)
1,"C=Cc1cc(C(=O)Nc2ccc(C(=N)NC(=O)OC(C)OC(C)=O)cc2)c(-c2ccc(C(=O)NCC3CC3)nc2C(=O)O)cc1OC (stereo not drawn) [Compound 23f, 3-(2-((4-(N-((1-acetoxyethoxy)carbonyl)carbamimidoyl)phenyl)carbamoyl)-5-methoxy-4-vinylphenyl)-6-((cyclopropylmethyl)carbamoyl)picolinic acid]","B (B = 1,001-10,000 ng/mL)"
